The subject of experiment [1] is HeLa-CASP2/CASP3/GSDMD TKO + CASP2 cells (human caspase-2). Put plainly: ATP-based cell viability (CellTiter-Glo) in HeLa TKO cells with exogenous caspase-2 expression. The note with it: for pEC50: Homo sapiens, HeLa, ATP-based viability, HeLa TKO cells with exogenous caspase-2, titrated compound. From the text: Specific chemical compounds are powerful tools for dissecting target-related signaling mechanisms in biological contexts ([Beck et al., 2022]; [Zhang et al., 2012]). Prompted by this notion and possibly to identify a compound that could activate the PIDDosome, we designed a cell death-based high-throughput chemical screen in HeLa cells, in which a triple knockout of CASP2, CASP3, and GSDMD were constructed. CASP3 and GSDMD deficiency served as the background to minimize compound-induced nonspecific cytotoxicity and undesired pyroptosis. Using the triple knockout cells as the control, additional expression of exogenous caspase-2 allows the identification of compounds that can specifically activate the caspase-2-BID pathway and trigger apoptosis through caspase-7. […] In accordance with the apoptosis induction, HUHS015 induced evident processing of caspase-2 expressed in the triple-knockout cells (Fig. 3B). This indicated activation of caspase-2 as the protease-deficient C320A mutant of caspase-2 was not processed upon HUHS015 treatment (Fig. 3B). Accordingly, expression of caspase-2 C320A rendered no cell death in response to HUHS015 treatment (Fig. 3B).
Figure 3. Chemical screen identifies HUHS015 as an agonist of human caspase-2. (A) Screen raw data and selectivity analyses of the compound plate containing HUHS015. The ATP-based viability data of both HeLa-CASP2^−/−CASP3^−/−GSDMD^−/− (TKO) (control group) and TKO cells with exogenous caspase-2 expression (experimental group) are shown. The ratios of the cell viability between the two groups are calculated with 3 as a cutoff for positive compound hit selection. (B) HUHS015-induced cell death depends on caspase-2 activity. HeLa TKO cells expressing WT or enzymatically deficient C320A mutant of caspase-2 were treated with HUHS015. ATP-based cell viability and immunoblotting of caspase-2 cleavage are shown. (C and F) The structures and potencies of HUHS15 (C) and its optimized derivative HUHS15-036 (F). HeLa TKO cells with exogenous caspase-2 expression were treated with titrated compounds. The ATP-based viability data were plotted with compound concentration for EC50 calculation. (D) BID is required for HUHS15-induced caspase-2-dependent cell death. […] Processing of caspase-2, -3, and -7 was analyzed by immunoblotting. […] ATP-based cell viability in panels (B and D) is expressed as mean ± s.d. from three technical replicates. […]
Cell viability was measured by the ATP assay using the CellTiter-Glo® Luminescent Cell Viability Assay kit (Promega).
Drug-related Screening Library (25 × 384-well plate, more than 7,000 compounds) was used for the chemical screen in the TKO HeLa cells rescued with exogenous caspase-2 expression. […] After treatment for 12 h, the cell viability was measured by the ATP assay. […]
(In general: In ATP-based viability assays light output follows the ATP content of the culture.)

For experiment [2], the system named is caspase-2-expressing HeLa cells with BID, RAIDD or PIDD1 knockout. Put plainly: Compound-induced caspase-2 activation and cell death in pathway-gene knockout HeLa cells. Format: cell-based, human. As to the method: Figure 3. Chemical screen identifies HUHS015 as an agonist of human caspase-2. (A) Screen raw data and selectivity analyses of the compound plate containing HUHS015. The ATP-based viability data of both HeLa-CASP2^−/−CASP3^−/−GSDMD^−/− (TKO) (control group) and TKO cells with exogenous caspase-2 expression (experimental group) are shown. The ratios of the cell viability between the two groups are calculated with 3 as a cutoff for positive compound hit selection. (B) HUHS015-induced cell death depends on caspase-2 activity. HeLa TKO cells expressing WT or enzymatically deficient C320A mutant of caspase-2 were treated with HUHS015. ATP-based cell viability and immunoblotting of caspase-2 cleavage are shown. (C and F) The structures and potencies of HUHS15 (C) and its optimized derivative HUHS15-036 (F). HeLa TKO cells with exogenous caspase-2 expression were treated with titrated compounds. The ATP-based viability data were plotted with compound concentration for EC50 calculation. (D) BID is required for HUHS15-induced caspase-2-dependent cell death. WT and BID^−/− (KO) HeLa TKO cells with exogenous caspase-2 expression, as well as the knockout cells rescued with WT or D60E mutant of BID were treated with HUHS15. ATP-based cell viability and immunoblotting detecting caspase-2 and BID processing are shown. (E) HUHS15-induced caspase-3/7 activation relies on caspase-9 but is independent of PIDDosome. CASP2^−/− (KO) HeLa cells with exogenous caspase-2 expression in the indicated knockout background were treated with HUHS15. Processing of caspase-2, -3, and -7 was analyzed by immunoblotting. (G) Top gRNA hits from the genetic screen of HUHS015-36-induced apoptosis in HeLa TKO cells with exogenous caspase-2 expression. In all the data, indicated cells were treated with the compound for 5 h (for HUHS015-36) or 9 h (for HUHS015) before cell viability measurement and immunoblotting analyses. ATP-based cell viability in panels (B and D) is expressed as mean ± s.d. from three technical replicates. Data in panels (B–F) are representative of three independent experiments. […]

Each structure is given as a SMILES string. pEC50: −log10 of the molar value. Read-outs that look alike come from different tables or passages of the source.

Turning to `Cc1cccc2nc(-n3nc4c(c3O)CCCC4)[nH]c12` [HUHS015-36], in experiment [1] (read-out: EC50, caspase-2-mediated cell death), the pEC50 is 7.22. For the same compound, the “treated cells that underwent apoptosis” value in experiment [1] (pool of CRISPR-Cas9 mutagenized caspase-2-expressing TKO HeLa cells, genetic screen) was “Over 95%”. Further, in experiment [2] (PIDD1 or RAIDD knockout, 5 h), the “caspase-2 activation and cell death” value is recorded as “neither PIDD1 nor RAIDD deficiency had any effects”.
Turning to `Cc1ccc2nc(-n3nc(C)c(Cc4ccccc4)c3O)[nH]c2c1` [HUHS015], in experiment [1] (read-out: EC50 (half-maximal effective concentration), caspase-2-mediated cell death), the pEC50 was approximately 5.17. Further, the cell death entry in experiment [2] (BID knockout) is “diminished”. Moreover, the “caspase-2 processing and caspase-3/7 activation” value in experiment [2] (RAIDD knockout) is reported as “could still induce caspase-2 processing as well as caspase-3/7 activation”.

Values taken from article PMC11637483, “Dissecting caspase-2-mediated cell death: from intrinsic PIDDosome activation to chemical modulation” (Protein & Cell, 2024).
